Test results reported in patent US6737383B1, “Herbicidal oxadiazolidines” (priority 1999, dated 2004).

Experiments:
[1] = system: bamyardgrass; assay: Test B flood test barnyardgrass; format: in vivo, Echinochloa crus-galli
Method in brief: (§1)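 Read-out is a visual response score from 0 (no effect) to 10 (complete control), assigned by comparison with untreated controls. Treatment was applied at the 2-leaf stage, and plants stayed in the greenhouse for twelve to sixteen days before scoring.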

[2] = system: velvetleaf; assay: Test B pre/postemergence velvetleaf; format: in vivo, Abutilon theophrasti; settings: for Plant response rating, Velvetleaf: scale of 0 to 10 where 0 is no effect and 10 is complete control
Method in brief: (§2)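 Response is a visual 0-to-10 score relative to untreated plants, where 0 means no effect and 10 means complete control, taken twelve to sixteen days after application. Treatments went onto soil at planting and onto foliage of 1- to 4-leaf plants, using a surfactant-containing non-phytotoxic solvent.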

[3] = system: corn; assay: Test B pre/postemergence corn; format: in vivo, Zea mays
Method in brief: as §2

[4] = system: giant foxtail; assay: Test B pre/postemergence giant foxtail; format: in vivo, Setaria faberii
Method in brief: as §2

[5] = system: duck salad; assay: Test B flood test duck salad; format: in vivo, Heteranthera limosa
Method in brief: as §1

[6] = system: rice; assay: Test B flood test rice; format: in vivo, Oryza sativa
Method in brief: as §1

[7] = system: purple nutsedge; assay: Test B pre/postemergence purple nutsedge; format: in vivo, Cyperus rotundus; settings: for Plant response rating, Nutsedge: scale of 0 to 10 where 0 is no effect and 10 is complete control
Method in brief: as §2

[8] = system: surinam grass; assay: Test B pre/postemergence surinam grass; format: in vivo, Brachiaria decumbens
Method in brief: as §2

[9] = system: sugar beet; assay: Test B pre/postemergence sugar beet; format: in vivo, Beta vulgaris; settings: for Plant response rating, Sugarbeets: scale of 0 to 10 where 0 is no effect and 10 is complete control
Method in brief: as §2

[10] = system: blackgrass; assay: Test B pre/postemergence blackgrass; format: in vivo, Alopecurus myosuroides
Method in brief: as §2

[11] = system: rape; assay: Test B pre/postemergence rape; format: in vivo, Brassica napus; settings: for Plant response rating, Rape: scale of 0 to 10 where 0 is no effect and 10 is complete control
Method in brief: as §2

[12] = system: wild oat; assay: Test B pre/postemergence wild oat; format: in vivo, Avena fatua; settings: for Plant response rating, Wild oats: scale of 0 to 10 where 0 is no effect and 10 is complete control
Method in brief: as §2

[13] = system: wheat; assay: Test B pre/postemergence wheat; format: in vivo, Triticum aestivum; settings: for Plant response rating, Wheat: scale of 0 to 10 where 0 is no effect and 10 is complete control
Method in brief: as §2

[14] = system: crabgrass; assay: Test B pre/postemergence crabgrass; format: in vivo, Digitaria sanguinalis
Method in brief: as §2

[15] = system: smallflower flatsedge; assay: Test B flood test smallflower flatsedge; format: in vivo, Cyperus difformis
Method in brief: as §1

[16] = Rate 62 g/ha, flood test species, Pre-emergence, visual evaluation after twelve to sixteen days
[17] = Rate 125 g/ha, under heading Pre-emergence, flood test species, visual evaluation after twelve to sixteen days
[18] = Rate 250 g/ha, Pre-emergence (flood test species), scale 0 to 10, 0 is no effect, 10 is complete control
[19] = Rate 500 g/ha, Pre-emergence, flood test species, scale 0 to 10 (0 no effect, 10 complete control)
[20] = Postemergence, Rate 250 g/ha, scale 0 to 10
[21] = Preemergence, Rate 250 g/ha, scale 0 to 10, 0 is no effect, 10 is complete control
[22] = Preemergence, Rate 500 g/ha, scale 0 to 10, 0 is no effect, 10 is complete control
[23] = Rate 62 g/ha, Postemergence, scale 0 to 10 (0 no effect, 10 complete control)
[24] = Rate 125 g/ha, Postemergence, scale 0 to 10, 0 is no effect, 10 is complete control
[25] = Postemergence, Rate 500 g/ha, scale of 0 to 10 where 0 is no effect and 10 is complete control
[26] = Preemergence, Rate 62 g/ha, scale of 0 to 10 where 0 is no effect and 10 is complete control
[27] = Preemergence, Rate 125 g/ha, scale of 0 to 10 where 0 is no effect and 10 is complete control

In the case of `COC(OC)C(C)n1c(=O)on(C(=O)N(c2ccc(F)cc2)C(C)C)c1=O` (centres unmarked) [Compound 471], the “Plant response rating, Barnyardgrass (0 to 10 scale, 0 is no effect, 10 is complete control)” value [1, 16] was 0, the “Barnyardgrass plant response rating (0 to 10 scale, 0 is no effect, 10 is complete control)” value [1, 17] was 0 and the “Barnyardgrass plant response rating” value [1, 18] was 0. For the same compound, the “Barnyardgrass plant response rating” value [1, 19] was 0, the “Velvetleaf plant response rating” value [2, 20] was 2 and the “Plant response rating, Velvetleaf” value ([2]; Preemergence, Rate 62 g/ha) was 2. For the same compound, the “Plant response rating, Velvetleaf” value ([2]; Preemergence, Rate 125 g/ha) was 3, the “Velvetleaf plant response rating” value [2, 21] was 3 and the “Velvetleaf plant response rating” value [2, 22] was 6. For the same compound, the “Velvetleaf plant response rating” value [2, 23] was 0, the “Velvetleaf plant response rating” value [2, 24] was 2 and the “Corn plant response rating” value [3, 20] was 0. The “Corn plant response rating” value [3, 25] was 0, the “Plant response rating, Corn” value [3, 26] was 0 and the “Plant response rating, Corn” value [3, 27] was 0. The “Corn plant response rating” value [3, 21] was 2, the “Corn plant response rating” value [3, 22] was 3 and the “Corn plant response rating” value [3, 23] was 0. For the same compound, the “Corn plant response rating” value [3, 24] was 0, the “Giant foxtail plant response rating” value [4, 20] was 7 and the “Giant foxtail plant response rating” value [4, 25] was 8. The “Plant response rating, Giant foxtail” value [4, 26] was 10, the “Plant response rating, Giant foxtail” value [4, 27] was 10 and the “Giant foxtail plant response rating” value [4, 21] was 10. For the same compound, the “Giant foxtail plant response rating” value [4, 22] was 10, the “Giant foxtail plant response rating” value [4, 23] was 0 and the “Giant foxtail plant response rating” value [4, 24] was 1. The “Plant response rating, Ducksalad (0 to 10 scale, 0 is no effect, 10 is complete control)” value [5, 16] was 0, the “Ducksalad plant response rating (0 to 10 scale, 0 is no effect, 10 is complete control)” value [5, 17] was 0 and the “Ducksalad plant response rating” value [5, 18] was 0. For the same compound, the “Ducksalad plant response rating” value [5, 19] was 0, the “Plant response rating, Rice (0 to 10 scale, 0 is no effect, 10 is complete control)” value [6, 16] was 0 and the “Rice plant response rating (0 to 10 scale, 0 is no effect, 10 is complete control)” value [6, 17] was 0. The “Rice plant response rating” value [6, 18] was 0, the “Rice plant response rating” value [6, 19] was 0 and the “Nutsedge plant response rating” value [7, 20] was 0. For the same compound, the “Plant response rating, Nutsedge” value ([7]; Preemergence, Rate 62 g/ha) was 0, the “Plant response rating, Nutsedge” value ([7]; Preemergence, Rate 125 g/ha) was 0 and the “Nutsedge plant response rating” value [7, 21] was 0. For the same compound, the “Nutsedge plant response rating” value [7, 22] was 0, the “Nutsedge plant response rating” value [7, 23] was 0 and the “Nutsedge plant response rating” value [7, 24] was 0. For the same compound, the “B. signalgrass plant response rating” value ([8]; Postemergence, Rate 250 g/ha, scale 0 to 10, 0 no effect, 10 complete control) was 4, the “B. signalgrass plant response rating” value [8, 25] was 6 and the “Plant response rating, B. signalgrass” value [8, 26] was 6. The “Plant response rating, B. signalgrass” value [8, 27] was 9, the “B. signalgrass plant response rating” value [8, 21] was 10 and the “B. signalgrass plant response rating” value [8, 22] was 10. The “B. signalgrass plant response rating” value [8, 23] was 0, the “B. signalgrass plant response rating” value [8, 24] was 0 and the “Sugarbeets plant response rating” value [9, 20] was 0. For the same compound, the “Plant response rating, Sugarbeets” value ([9]; Preemergence, Rate 62 g/ha) was 0, the “Plant response rating, Sugarbeets” value ([9]; Preemergence, Rate 125 g/ha) was 2 and the “Sugarbeets plant response rating” value [9, 21] was 2. The “Sugarbeets plant response rating” value [9, 22] was 4, the “Sugarbeets plant response rating” value [9, 23] was 0 and the “Sugarbeets plant response rating” value [9, 24] was 0. For the same compound, the “Blackgrass plant response rating” value [10, 20] was 3, the “Blackgrass plant response rating” value [10, 25] was 7 and the “Plant response rating, Blackgrass” value [10, 26] was 9. For the same compound, the “Plant response rating, Blackgrass” value [10, 27] was 10, the “Blackgrass plant response rating” value [10, 21] was 10 and the “Blackgrass plant response rating” value [10, 22] was 10. For the same compound, the “Blackgrass plant response rating” value [10, 23] was 0, the “Blackgrass plant response rating” value [10, 24] was 2 and the “Rape plant response rating” value [11, 20] was 0. The “Plant response rating, Rape” value ([11]; Preemergence, Rate 62 g/ha) was 2, the “Plant response rating, Rape” value ([11]; Preemergence, Rate 125 g/ha) was 2 and the “Rape plant response rating” value [11, 21] was 7. For the same compound, the “Rape plant response rating” value [11, 22] was 10, the “Rape plant response rating” value [11, 23] was 0 and the “Rape plant response rating” value [11, 24] was 0. For the same compound, the “Wild oats plant response rating” value [12, 20] was 0, the “Plant response rating, Wild oats” value ([12]; Preemergence, Rate 62 g/ha) was 2 and the “Plant response rating, Wild oats” value ([12]; Preemergence, Rate 125 g/ha) was 4. The “Wild oats plant response rating” value [12, 21] was 7, the “Wild oats plant response rating” value [12, 22] was 7 and the “Wild oats plant response rating” value [12, 23] was 0. The “Wild oats plant response rating” value [12, 24] was 0, the “Wheat plant response rating” value [13, 20] was 0 and the “Plant response rating, Wheat” value ([13]; Preemergence, Rate 62 g/ha) was 0. The “Plant response rating, Wheat” value ([13]; Preemergence, Rate 125 g/ha) was 0, the “Wheat plant response rating” value [13, 21] was 0 and the “Wheat plant response rating” value [13, 22] was 0. The “Wheat plant response rating” value [13, 23] was 0, the “Wheat plant response rating” value [13, 24] was 0 and the “Crabgrass plant response rating” value [14, 20] was 8. For the same compound, the “Crabgrass plant response rating” value [14, 25] was 9, the “Plant response rating, Crabgrass” value [14, 26] was 9 and the “Plant response rating, Crabgrass” value [14, 27] was 10. For the same compound, the “Crabgrass plant response rating” value [14, 21] was 10, the “Crabgrass plant response rating” value [14, 22] was 10 and the “Crabgrass plant response rating” value [14, 23] was 1. For the same compound, the “Crabgrass plant response rating” value [14, 24] was 3, the “Plant response rating, S. Flatsedge (0 to 10 scale, 0 is no effect, 10 is complete control)” value [15, 16] was 0 and the “S. Flatsedge plant response rating (0 to 10 scale, 0 is no effect, 10 is complete control)” value [15, 17] was 0. The “S. Flatsedge plant response rating” value [15, 18] was 0 and the “S. Flatsedge plant response rating” value [15, 19] was 0.
